Experiments:
[1] = tested on: Staphylococcus aureus; details: in words; cited from earlier work
[2] = tested on: Bacillus subtilis; details: in words; cited from earlier work
[3] = in words; cited from earlier work
[4] = tested on: Bombyx mori L. larvae; details: 4th instar, within 2 days; cited from earlier work
[5] = tested on: Colletotrichum gloeosporioides; details: in words; cited from earlier work
[6] = tested on: S. exigua larvae; experiment: toxicity of furan analogs of variable side chain length in diet assay; type: in vivo, Spodoptera exigua; details: 5 μmoles g^-1 diet
Experimental: To determine the toxicity of avocadofurans and their furan analogs, five saturated furans of variable side chain lengths, namely 2-(tetradecyl)furan compound (20), 2-(pentadecyl)furan (1), 2-(hexadecyl)furan compound (21), 2-(heptadecyl)furan (4), and 2-(octadecyl)furan compound (22) were tested for their activity against S. exigua in diet assay. Diets for treatments were prepared at a concentration known to be insecticidal against S. exigua early instar of 5 μmoles g^-1 diet. To compare toxicity among furans, concentration in μmoles g^-1 diet were adjusted according to the molecular weights of individual furans.
Five saturated furans of variable side chain lengths: 2-(tetradecyl)furan (20), 2-(pentadecyl)furan (1), 2-(hexadecyl)furan (21), 2-(heptadecyl)furan (4), and 2-(octadecyl)furan (22) were tested for activity against S. exigua in diet bioassays. Treated diets were prepared at a concentration known to be insecticidal against S. exigua early instars (5 μmoles g^-1 diet). To compare toxicity among furans, concentrations in μmoles g^-1 of diet were used to compensate for their different molecular weights.
Each furan compound was transferred into a 50-ml polypropylene centrifuge tube (Fisher, Pittsburgh Pa.), added 2 ml of 0.1% Tween-80 solution (Fisher), homogenized with an ultrasonic homogenizer (Cole-Parmer, Chicago, Ill.), and artificial diet was added to produce a final weight of 15 g. The mixture was vortexed for 3 mm. Control diet was prepared by mixing 2 ml of Tween solution with 13 g of artificial diet to produce a final weight of 15 g. Control and treated diets were poured into 16-well bioassay trays (C-D International Inc., Pitman N.J.). One neonate was added per well. Trays were placed in an incubator set for conditions described previously. Twenty-four neonates were tested for each treatment. Each treatment was replicated four times (total of 96 larvae/treatment). Larval mortality and weight were recorded after 9 days.

[7] = tested on: S. exigua larvae; experiment: growth inhibition and mortality of synthetic avocadofurans and triolein in diet bioassay; type: in vivo, Spodoptera exigua; details: 3,500 μg/g
[8] = tested on: S. exigua larvae; experiment: as above; type: in vivo, Spodoptera exigua; set-up: key to GI (growth index): growth index calculated per J. Chem. Ecol. 19:1109 (1993), imax = 3; details: for 7-d Instar / 7-d Larval Weight: mean ± SE
Experimental: S. exigua larvae were used in all experiments. Larvae were reared on artificial diet modified from U.S.D.A. Agric. Res. Serv., Prod. Res. Rep., 1208:1 (1969), and maintained at 28+2° C., 14:10; light:dark (L:D) photoperiod.
The colony was collected from Orange Co., Calif. and had new genetic material added within 12 months prior to the study. The age of the cohorts tested was standardized by using neonates within 12 hours of eclosion. All bioassays were maintained at 28+2° C. 75% relative humidity (RH), and at 14:10 (L:D) photoperiod with fluorescent lighting.
The insecticidal activity of the fractions was tested with artificial diet bioassays. Treated diets were prepared by transferring 750 μl of acetone solutions of each fraction (equivalent to 300 mg crude idioblast cell oil) into 50-ml polypropylene centrifuge tubes (Fisher, Pittsburgh Pa.), evaporating the acetone, adding 2 ml of 0.1% Tween-80 solution (Fisher), homogenizing with an ultrasonic homogenizer (Co le-Parmer, Chicago Ill.), and adding prepared diet to produce a final weight of 15 g containing the equivalent of 2% idioblast oil. The mixture was vortexed for 3 mm.
Control diet was prepared by mixing 2 ml of Tween solution and 13 g of artificial diet to produce a final weight of 15 g. Control and treated diets were poured into 24-well (15.9 mm diameter and 15.9 mm depth) bioassay trays (C-D International Inc., Pitman N.J.). One neonate was added per well, and trays were placed in an incubator under the previously described conditions. Twenty-four neonates were tested for each fraction and control. Mortality and larval weights were recorded after 7 days.
The effect of the synthetically produced avocado furan compounds (>95% purity) and commercially available triolein (Sigma, St. Louis, Mo.) were tested on larval growth and mortality of S exigua. Treated and control diet were prepared as previously described.
Six different compound concentrations, chosen on the basis of studies with the oil fractions, were evaluated for both 2-(pentadecyl)furan and 2-(heptadecyl)furan: 0 (control), 600, 750, 900, 1050, and 1200 μg/g. Also, six concentrations of triolein (subfraction 1-1-12) were tested: 0 (control), 7000, 8000, 9000, 10000, and 11000 μg/g.
Twenty-four neonates were used per treatment. Bioassays were conducted as described in Example 4, and replicated 4 times for each concentration (i.e., a total of 96 larvae were tested for each concentration). Larval weight, instar, and mortality were recorded after 7 days […].
(§1) EC (effective concentration) values were calculated by subtracting the mean larval weight for each treatment from the mean weight of the controls, and dividing by the mean weight of the controls. LC (lethal concentration) values were obtained using probit analysis as described in Probit Analysis (1971) Cambridge University Press, Cambridge, UK. GI (growth index) and RGI (relative growth index) values were calculated as described in J. Chem. Ecol., 19:1109 (1993), but using an imax of 3 (the stage attained by most control larvae after 7 d). Statistical comparisons were conducted using SuperAnova Abacus Concept Inc., Berkeley, Calif. (1989).

[9] = tested on: S. exigua; experiment: synergistic/joint toxicity of avocadofuran and triolein combinations; type: in vivo, Spodoptera exigua
From the text: The treatments were as follows: Control, 2-(pentadecyl)furan, 2-(heptadecyl)furan, triolein, individually, and 2-(pentadecyl)furan combined with 2-(heptadecyl)furan and triolein, 2-(pentadecyl)furan combined with triolein, and 2-(heptadecyl)furan combined with triolein. Because the combined LC25 s for both avocadofurans exceed their LC50 values, a concentration for each was adjusted so that when added it would approximate the value of the avocadofurans LC50 (see Table 2). These concentrations were used whenever both avocadofurans were combined in the same treatment. Treatments were replicated four times, with 15 larvae per replicate to a total of 60 larvae/treatment.
Joint effects were determined by testing all combinations of LC25 s (estimated from probit lines shown in Table 1) of the three compounds for toxicity to S. exigua. The treatments were: control, 2-(pentadecyl)furan, 2-(heptadecyl)furan, triolein, 2-(pentadecyl)furan+triolein, 2-(heptadecyl)furan+triolein, and 2-(pentadecyl)furan+2-(heptadecyl)furan+triolein. Because the combined LC25 s for both avocadofurans exceeded their LC50 values (due to a steep slope of their LC lines), a concentration for each was used so that when added together it would approximate the value of the avocadofurans LC50 (Table 1). These concentrations were used whenever both avocadofurans were combined in the same treatment.
Treatments were replicated four times, with 15 larvae per replicate (total of 60 larvae/treatment). Dietary treatment preparations and bioassay procedures were conducted as described in Example 4. For each diet treatment, 9-d larval instar and weight, pupal weights, times to pupation, and larval mortality were recorded.

[10] = tested on: neonate S. exigua; experiment: individual toxicity of avocadofurans and triolein in artificial diet; type: in vivo, Spodoptera exigua
Experimental: In this study, individual activity of avocadofurans was investigated quantitatively. For this purpose, eight concentrations of the avocadofurans (1) and (4) and triolein (8) were tested. Results are seen in FIG. 6.
Following pilot studies, eight concentrations of each were tested: 0, 0.5, 1, 1.5, 2, 2.5, 3, and 3.5 μmoles g^~1 diet. Also, five concentrations of triolein were tested: 0; 1,000; 2,000; 3,000; and 4,000 μg g^~1 diet. Because triolein was not compared to a structurally similar compound, a more standard dietary formulation of μg g-^1 was used rather than ^~ moles g^-1 in all triolein-treated bioassays.
Treated and control diet were prepared as described above. For each concentration the compounds were dissolved in 10 ml of Tween solution and mixed using an ultrasonic homogenizer. Untreated diet was added to make a total of 100 g and then vortexed for 3 mm. Control diet was prepared by mixing 10 ml of the Tween solution with 90 g of artificial diet to produce a final weight of 100 g. Control and treated diets were poured into 30 ml plastic cups. One neonate was placed in each cup and cups were held in an incubator. Fifteen larvae were tested at each concentration, and assays were replicated 4 times (total of 60 larvae/treatment). For each diet treatment, 9-d larval instar and weight, pupal weights, times to pupation, and larval mortality were recorded.
as §1

C=CCCCCCCCCCCCc1ccco1 [2-(trideca-12-enyl)furan]
growth inhibitory activity [1]: growth inhibitory activity | growth inhibitory activity [2]: growth inhibitory activity

C=CCCCCCCCCCCCC(O)CC(O)COC(C)=O (stereo not shown) [1-acetoxy-2,4-dihydroxy-n-heptadec-16-ene]
fungicidal / antifungal activity [3]: active as a fungicide

C#CCCCCCCCCCCCC(O)CC(O)COC(C)=O (stereo not shown) [1-acetoxy-2,4-dihydroxyheptadec-16-yne]
fungicidal / antifungal activity [3]: antifungal activity

CCCCC/C=C\C/C=C\CCCCCCCC(=O)CC(O)COC(C)=O (single isomer, unassigned) [persin, 1-acetoxy-2-hydroxy-4-oxo-heneicosa-(12Z,15Z)-diene]
concentration at which growth inhibited [4]: 200 µg/g | antifungal activity [5]: antifungal activity

C#CCCCCCCCCCCCC(O)CC(O)CO (stereo not shown) [1,2,4-trihydroxyheptadec-16-yne]
fungicidal / antifungal activity [3]: antifungal activity

C=CCCCCCCCCCCCC(O)CC(O)CO (stereo not shown) [1,2,4-trihydroxy-n-heptadec-16-ene]
fungicidal / antifungal activity [3]: antifungal activity

CCCCCCCCCCCCCCCCCCc1ccco1 [2-(octadecyl)furan]
effect on 9-day larval weight (FIG. 5B) ([6]; in words): comparable to the best compound described above, namely compound (1)

CCCCCCCCCCCCC/C=C/c1ccco1 [2-(1E-pentadecenyl)furan]
reduction of larval growth compared to controls [7]: 57.3% | mortality at 3500 µg/g ([8]; Spodoptera exigua, feed or water, 3,500 μg/g): 12.5% | concentration at which S. exigua growth is inhibited / compound active ([8]; lowest active concentration, in diet): ≥ 3,500 μg/g

CCCCCCCCCCCCCCCCCc1ccco1 [2-(heptadecyl)furan (4), 2-(heptadecyl)furan]
Mortality (%) using LC25 ([9]; in vivo): 23.3% | Survival to pupation ([9]; in vivo): 76.6% | Weight, 9-d larvae ([9]; mean ± spread): 54.2 ± 5.9 mg | Weight, Pupae ([9]; mean ± spread): 112.8 ± 2.6 mg | Developmental times ([9]; neonate-pupa, in d (unit assumed)): 18.0 | LC25 (95% FL) ([10]; avocadofurans, larval stage): 1.02(0.70-1.29) μmoles g^-1 of diet | effect on pupal weight (FIG. 7) ([10]; in words): significantly reduced | larval developmental time from neonate to pupa (FIG. 8) ([10]; in words): significantly prolonged | Relative Growth Index (RGI) (FIG. 10) ([10]; in words, increasing concentrations): decreased with increasing concentrations | LC50 ([10]; larval stage): 2.1 μmoles g^-1 diet | concentration significantly reducing pupal weight (FIG. 7A) ([10]; lowest concentration vs controls): ≥ 3 µmol/g | GI (growth index) ([8]; 600 μg/g): 0.73 | percent reduction in larval weight vs control ([8]; 600 μg/g): 79.46% | 7-d Instar ([8]; 600 μg/g): 2.25 ± 0.06 | 7-d Larval Weight ([8]; 600 μg/g): 6.44 ± 0.44 mg | GI (growth index) ([8]; 750 μg/g): 0.62 | percent reduction in larval weight vs control ([8]; 750 μg/g): 87.14% | 7-d Instar ([8]; 750 μg/g): 1.95 ± 0.06 | 7-d Larval Weight ([8]; 750 μg/g): 4.03 ± 0.44 mg | GI (growth index) ([8]; 900 μg/g): 0.56 | percent reduction in larval weight vs control ([8]; 900 μg/g): 89.84% | 7-d Instar ([8]; 900 μg/g): 1.87 ± 0.06 | 7-d Larval Weight ([8]; 900 μg/g): 3.19 ± 0.30 mg | GI (growth index) ([8]; 1050 μg/g): 0.46 | percent reduction in larval weight vs control ([8]; 1050 μg/g): 93.55% | 7-d Instar ([8]; 1050 μg/g): 1.65 ± 0.07 | 7-d Larval Weight ([8]; 1050 μg/g): 2.02 ± 0.16 mg | GI (growth index) ([8]; 1200 μg/g): 0.23 | percent reduction in larval weight vs control ([8]; 1200 μg/g): 95.93% | 7-d Instar ([8]; 1200 μg/g): 1.43 ± 0.08 | 7-d Larval Weight ([8]; 1200 μg/g): 1.28 ± 0.16 mg | mortality ([8]; 600 to 900 μg/g): < 15% | reduction of larval development and growth ([8]; 600 to 900 μg/g): > 75% | mortality at 600 µg/g ([8]; Spodoptera exigua, feed or water, 168 h, 600 μg/g, 7 d): 2.08% | mortality at 750 µg/g ([8]; Spodoptera exigua, feed or water, 168 h, 750 μg/g, 7 d): 4.2% | mortality at 900 µg/g ([8]; Spodoptera exigua, feed or water, 168 h, 900 μg/g, 7 d): 10.4% | mortality at 1050 µg/g ([8]; Spodoptera exigua, feed or water, 168 h, 1050 μg/g, 7 d): 16.7% | mortality at 1200 µg/g ([8]; Spodoptera exigua, feed or water, 168 h, 1200 μg/g, 7 d): 54.2% | LC50 (95% FL) ([8]; in diet): 1206 µg/g | comparative toxicity and growth inhibition ([8]; in words): more toxic and growth inhibitory to S. exigua than either of the unsaturated compounds (2) and (6) | inhibition of larval growth ([8]; in words): significantly inhibited larval growth | Relative Growth Index (RGI) vs log concentration regression (FIG. 4) ([8]; log (μg/g)): y=4.82-1.47*log(x), r^2 =0.89

CCCCCCCCCCCCCCCCc1ccco1 [2-(hexadecyl)furan]
effect on 9-day larval weight (FIG. 5B) ([6]; in words): comparable to the best compound described above, namely compound (1)

CCCCCCCCCCCCCCc1ccco1 [2-(tetradecyl)furan]
effect on mortality (FIG. 5A) ([6]; 9 d, in words): had the lowest activity | effect on 9-day larval weight (FIG. 5B) ([6]; in words): significantly reducing larval weight compared to the control | mortality at 5 µmol/g ([6]; Spodoptera exigua, feed or water, 216 h, 9 d, read-out: mortality of S. exigua larvae (FIG. 5A)): < 50%
